From article PMC11303761 (Nature Communications, 2024)

Experiments:
Type in all cases: cell-based
[1] = biological target: β2AR (Homo sapiens, UniProt P07550); test: β-arrestin2 recruitment; conditions: β2-Tango HTLA; agonist alone or with 100 µM PAGln (Fig 2A, 2C)
[2] = biological target: T1, β1AR (Homo sapiens, UniProt P08588); test: cAMP production in β1-HEK293 cells; conditions: 100 µM
[3] = biological target: T1, β1AR; test: β-arrestin2 recruitment; conditions: β1-HTLA cells

T1 sequence (P08588 whole entry): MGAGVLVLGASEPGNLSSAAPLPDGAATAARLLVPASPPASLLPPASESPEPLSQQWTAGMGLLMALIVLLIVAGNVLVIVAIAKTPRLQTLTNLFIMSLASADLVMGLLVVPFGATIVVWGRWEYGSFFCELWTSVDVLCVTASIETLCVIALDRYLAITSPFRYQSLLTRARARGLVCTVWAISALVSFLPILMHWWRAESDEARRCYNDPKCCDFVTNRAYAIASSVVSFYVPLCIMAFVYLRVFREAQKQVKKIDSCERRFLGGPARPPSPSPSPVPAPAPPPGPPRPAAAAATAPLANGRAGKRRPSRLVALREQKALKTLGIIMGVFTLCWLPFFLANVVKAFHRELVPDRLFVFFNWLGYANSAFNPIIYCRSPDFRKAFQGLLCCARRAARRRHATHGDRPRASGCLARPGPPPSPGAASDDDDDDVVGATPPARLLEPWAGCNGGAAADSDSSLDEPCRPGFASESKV
Chain of β2AR (P07550 whole entry): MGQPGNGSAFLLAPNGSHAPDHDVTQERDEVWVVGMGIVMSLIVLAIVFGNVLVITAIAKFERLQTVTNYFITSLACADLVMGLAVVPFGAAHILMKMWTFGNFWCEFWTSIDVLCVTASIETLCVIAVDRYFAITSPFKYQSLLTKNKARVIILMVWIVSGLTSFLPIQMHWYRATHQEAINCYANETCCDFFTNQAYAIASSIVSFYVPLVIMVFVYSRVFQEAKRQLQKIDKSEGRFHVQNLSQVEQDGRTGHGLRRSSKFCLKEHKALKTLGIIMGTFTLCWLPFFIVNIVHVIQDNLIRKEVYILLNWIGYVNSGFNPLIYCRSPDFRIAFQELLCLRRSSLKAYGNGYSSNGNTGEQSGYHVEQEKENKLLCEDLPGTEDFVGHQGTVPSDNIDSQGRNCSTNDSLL

Compound	Bmax of β-arrestin2 recruitment [1] [RLU]	cAMP production by compound alone [2]	effect of PAGln on ISO- or NE-induced β-arrestin2 recruitment [3]
NC[C@H](O)c1ccc(O)c(O)c1 [NE, norepinephrine]	3137		
NC(=O)CC[C@H](NC(=O)Cc1ccccc1)C(=O)O [PAGln, Phenylacetylglutamine]		failed to induce cAMP production	failed to show any significant effect
N[C@@H](Cc1ccccc1)C(=O)O [Phe, phenylalanine]		failed to induce cAMP production	
